Measured values reported in patent publication US9624223B2, “Morphinan derivative” (THE KITASATO INSTITUTE, priority 2013, dated 2017).
Marks after values point to notes of the source that are not given here.

Legend:
δ opioid receptor = target: T1, δ opioid receptor (Mus musculus, UniProt P32300); test: Opioid receptor binding test, [3H]DPDPE, mouse cerebrum membrane fraction; details: read-out: Binding affinity (Ki, nM) δ
T1 construct: In the assays for the μ and δ receptors, the mouse cerebrum membrane fraction was used; from tissue; host or cells: mouse cerebrum membrane fraction
T1 sequence (P32300 whole entry): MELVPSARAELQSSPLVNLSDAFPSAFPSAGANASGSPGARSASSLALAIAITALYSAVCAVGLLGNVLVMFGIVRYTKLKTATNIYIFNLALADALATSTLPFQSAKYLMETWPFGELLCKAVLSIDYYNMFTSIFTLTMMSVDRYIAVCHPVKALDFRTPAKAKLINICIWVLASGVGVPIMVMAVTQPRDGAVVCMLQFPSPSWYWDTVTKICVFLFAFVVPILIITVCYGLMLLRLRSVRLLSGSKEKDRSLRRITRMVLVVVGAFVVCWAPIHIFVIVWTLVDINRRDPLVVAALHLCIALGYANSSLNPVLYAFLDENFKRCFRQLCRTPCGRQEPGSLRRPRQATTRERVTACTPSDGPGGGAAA
Description: (§1) Binding affinities of the compounds of the present invention to the μ, δ, and κ opioid receptors were examined.
(§2) According to a previous report (J. Biol. Chem., 2001, 276:15409-15414), mouse cerebrum and guinea pig cerebellum membrane fractions were prepared. As radioactive ligands for the opioid receptors, [^3H]DAMGO (μ opioid receptor), [^3H]DPDPE (δ opioid receptor), and [3H]U69,593 (κ opioid receptor) were used. In the assays for the μ and δ receptors, the mouse cerebrum membrane fraction was used, and in the assay for the κ receptor, guinea pig cerebellum membrane fraction was used. For the nonspecific binding, DAMGO, DPDPE, and U69,593 were used at 1 μM for μ, δ and κ receptors, respectively. Each receptor membrane fraction, radioactive ligand, and a sample at various concentrations were reacted for a predetermined time, and after the B/F separation, amount of radioactivity remained on the filter was measured with a liquid scintillation counter, and binding inhibition ratio of the test compound (IC50 value) was calculated. Ki value was calculated by using the resulting IC50 value in accordance with the following equation. Ki=IC50/(1+L/Kd) L: Concentration of radioactive ligand used Kd: Kd value of radioactive ligand
(§3) Further, selectivity for the δ receptor among the opioid receptors was determined by calculating ratio of the Ki value for μ or κ, and the Ki value for δ (μ/δ or κ/δ).
(§4) • [D-Ala^2,N-MePhe^4, Gly-Ol]enkephalin DPDPE: • [D-Pen^2,D-Pen^5]enkephalin

κ opioid receptor = target: T2, κ opioid receptor (Cavia porcellus, UniProt P41144); test: Opioid receptor binding test, [3H]U69,593, guinea pig cerebellum membrane fraction; details: ratio of Ki for κ to Ki for δ
T2 construct: in the assay for the κ receptor, guinea pig cerebellum membrane fraction was used; from tissue; host or cells: guinea pig cerebellum membrane fraction
T2 sequence (P41144 whole entry): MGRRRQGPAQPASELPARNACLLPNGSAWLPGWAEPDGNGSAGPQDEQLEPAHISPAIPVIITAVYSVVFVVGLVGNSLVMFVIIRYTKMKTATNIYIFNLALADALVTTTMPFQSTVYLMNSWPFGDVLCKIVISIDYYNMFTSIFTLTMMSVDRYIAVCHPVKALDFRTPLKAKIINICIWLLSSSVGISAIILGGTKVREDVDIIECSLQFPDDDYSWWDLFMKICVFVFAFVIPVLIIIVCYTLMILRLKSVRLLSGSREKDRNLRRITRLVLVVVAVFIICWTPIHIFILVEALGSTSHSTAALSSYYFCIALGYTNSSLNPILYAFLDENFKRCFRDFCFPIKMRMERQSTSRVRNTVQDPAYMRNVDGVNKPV
Description: as §1, §2, §3

μ opioid receptor = target: T3, μ opioid receptor (Mus musculus, UniProt P42866); test: Opioid receptor binding test, [3H]DAMGO, mouse cerebrum membrane fraction; details: ratio of Ki for μ to Ki for δ
T3 construct: In the assays for the μ and δ receptors, the mouse cerebrum membrane fraction was used; from tissue; host or cells: mouse cerebrum membrane fraction
T3 sequence (P42866 whole entry): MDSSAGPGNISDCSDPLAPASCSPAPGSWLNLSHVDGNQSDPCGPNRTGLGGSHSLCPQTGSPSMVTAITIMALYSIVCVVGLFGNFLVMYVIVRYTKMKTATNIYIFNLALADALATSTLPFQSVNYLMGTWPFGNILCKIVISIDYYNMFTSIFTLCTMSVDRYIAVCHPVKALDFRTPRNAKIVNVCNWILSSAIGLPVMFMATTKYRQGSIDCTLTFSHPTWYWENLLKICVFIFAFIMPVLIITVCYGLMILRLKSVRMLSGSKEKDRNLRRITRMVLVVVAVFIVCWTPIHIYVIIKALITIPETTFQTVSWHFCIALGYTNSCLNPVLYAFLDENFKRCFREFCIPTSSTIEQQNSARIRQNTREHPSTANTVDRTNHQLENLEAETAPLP
Description: as §1, §2, §3, §4

human opioid receptor κ = target: T4, human opioid receptor κ (Homo sapiens, UniProt P41145); test: Opioid receptor function test (Lance Ultra cAMP Kit), κ receptor; type: cell-based; details: for κ Receptor reaction ratio at the maximum concentration (reference value): 10 μM, maximum reaction not attained, U-69593 = 100%; for EC50: agonistic activity, human κ receptor-expressing CHO cells, cAMP, forskolin; for Emax: maximum reaction relative to U-69593 taken as 100%
T4 construct: host or cells: CHO cells
T4 sequence (P41145 whole entry): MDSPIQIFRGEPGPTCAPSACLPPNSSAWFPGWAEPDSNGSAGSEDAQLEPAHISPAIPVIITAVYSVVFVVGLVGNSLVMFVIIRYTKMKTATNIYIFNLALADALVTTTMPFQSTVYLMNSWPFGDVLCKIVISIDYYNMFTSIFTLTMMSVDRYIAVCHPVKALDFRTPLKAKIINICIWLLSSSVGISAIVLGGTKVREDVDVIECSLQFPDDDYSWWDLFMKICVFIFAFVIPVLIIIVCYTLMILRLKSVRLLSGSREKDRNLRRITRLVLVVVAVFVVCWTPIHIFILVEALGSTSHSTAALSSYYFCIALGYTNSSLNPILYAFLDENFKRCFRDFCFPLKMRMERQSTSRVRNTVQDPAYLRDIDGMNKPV
Description: (§5) Functional activities of the compounds of the present invention on the μ, δ, and κ opioid receptors were examined.
(§6) The test was performed by using Lance Ultra cAMP Kit (Perkin-Elmer) according the prescribed method. In the evaluation of the agonistic activity, each human opioid receptor (δ, μ, and κ, accession numbers and catalog numbers are mentioned below)-expressing CHO cells and 10 μM of a test compound were reacted for 30 minutes in the presence of forskolin in an assay buffer (1×HBSS, […], pH 7.4, […] (isobutylmethylxanthine), 7.5% BSA). The cAMP detection reagent included in the kit was then added, and 1 hour afterward, time decomposition fluorometry was performed by using EnVision plate reader (Perkin-Elmer). […] The Emax value was calculated as a ratio of the maximum reaction of the test compound based on the maximum reaction of each control drug, which was taken as 100%.
(§7) • (+)-4-[(αR)-α-(2S,5R)-4-Allyl-2,5-dimethyl-1-piperazinyl]-3-methoxybenzyl]-N,N-diethylbenzamide DAMGO: • [D-Ala^2,N-MePhe^4,Gly-ol]enkephalin U-69593: • (+)-(5α,7α,8β)-N-Methyl-N-[7-(1-pyrrolidinyl)-1-oxaspiro[4.5]dec-8-yl]benzeneacetamide Accession Numbers and Catalog Numbers δ: Catalog No. CT4607, accession No. NM_000911.2 μ: Catalog No. CT4605, accession No. NM_000914 κ: Catalog No. CT4606, accession No. NM_000912 (ChanTest Corporation)

human opioid receptor μ = target: T5, human opioid receptor μ (Homo sapiens, UniProt P35372); test: Opioid receptor function test (Lance Ultra cAMP Kit), μ receptor; type: cell-based; details: for EC50: agonistic activity, human μ receptor-expressing CHO cells, cAMP, forskolin; for Emax: maximum reaction relative to DAMGO taken as 100%; for μ Receptor reaction ratio at the maximum concentration (reference value): 10 μM, maximum reaction not attained, DAMGO = 100%
T5 construct: host or cells: CHO cells
T5 sequence (P35372 whole entry): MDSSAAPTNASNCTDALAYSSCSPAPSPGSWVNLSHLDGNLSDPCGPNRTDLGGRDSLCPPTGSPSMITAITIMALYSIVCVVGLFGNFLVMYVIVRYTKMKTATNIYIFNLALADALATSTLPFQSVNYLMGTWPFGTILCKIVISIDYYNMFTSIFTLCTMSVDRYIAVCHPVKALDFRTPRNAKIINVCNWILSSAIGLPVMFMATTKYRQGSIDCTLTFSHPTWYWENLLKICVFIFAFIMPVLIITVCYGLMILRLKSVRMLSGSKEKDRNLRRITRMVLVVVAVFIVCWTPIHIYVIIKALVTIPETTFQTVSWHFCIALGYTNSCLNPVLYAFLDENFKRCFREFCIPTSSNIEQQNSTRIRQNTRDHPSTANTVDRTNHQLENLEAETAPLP
Description: as §5, §6, §7

human opioid receptor δ = target: T6, human opioid receptor δ (Homo sapiens, UniProt P41143); test: Opioid receptor function test (Lance Ultra cAMP Kit), δ receptor; type: cell-based; details: for EC50: agonistic activity, human δ receptor-expressing CHO cells, cAMP, forskolin; for Emax: maximum reaction relative to SNC 80 taken as 100%
T6 construct: host or cells: CHO cells
T6 sequence (P41143 whole entry): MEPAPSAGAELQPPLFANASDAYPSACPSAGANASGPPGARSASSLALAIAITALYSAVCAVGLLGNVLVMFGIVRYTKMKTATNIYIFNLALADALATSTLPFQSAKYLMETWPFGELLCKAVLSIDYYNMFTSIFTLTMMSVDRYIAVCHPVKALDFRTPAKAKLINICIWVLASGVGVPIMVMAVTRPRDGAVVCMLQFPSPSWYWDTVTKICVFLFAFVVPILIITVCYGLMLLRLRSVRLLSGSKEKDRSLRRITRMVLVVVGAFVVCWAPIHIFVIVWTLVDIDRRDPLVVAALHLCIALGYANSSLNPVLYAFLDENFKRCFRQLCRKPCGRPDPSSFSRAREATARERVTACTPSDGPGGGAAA
Description: as §5, §6, §7

hERG channel = target: T7, hERG channel (Homo sapiens, UniProt Q12809); test: hERG potassium channel inhibition test (Qpatch16 patch clamp, CHO-K1 cells); type: cell-based; details: 10 μM; tail current inhibition, hERG-expressing CHO-K1 cells
T7 construct: expressed in transfected cells; host or cells: CHO-K1 cells
T7 sequence (Q12809 whole entry): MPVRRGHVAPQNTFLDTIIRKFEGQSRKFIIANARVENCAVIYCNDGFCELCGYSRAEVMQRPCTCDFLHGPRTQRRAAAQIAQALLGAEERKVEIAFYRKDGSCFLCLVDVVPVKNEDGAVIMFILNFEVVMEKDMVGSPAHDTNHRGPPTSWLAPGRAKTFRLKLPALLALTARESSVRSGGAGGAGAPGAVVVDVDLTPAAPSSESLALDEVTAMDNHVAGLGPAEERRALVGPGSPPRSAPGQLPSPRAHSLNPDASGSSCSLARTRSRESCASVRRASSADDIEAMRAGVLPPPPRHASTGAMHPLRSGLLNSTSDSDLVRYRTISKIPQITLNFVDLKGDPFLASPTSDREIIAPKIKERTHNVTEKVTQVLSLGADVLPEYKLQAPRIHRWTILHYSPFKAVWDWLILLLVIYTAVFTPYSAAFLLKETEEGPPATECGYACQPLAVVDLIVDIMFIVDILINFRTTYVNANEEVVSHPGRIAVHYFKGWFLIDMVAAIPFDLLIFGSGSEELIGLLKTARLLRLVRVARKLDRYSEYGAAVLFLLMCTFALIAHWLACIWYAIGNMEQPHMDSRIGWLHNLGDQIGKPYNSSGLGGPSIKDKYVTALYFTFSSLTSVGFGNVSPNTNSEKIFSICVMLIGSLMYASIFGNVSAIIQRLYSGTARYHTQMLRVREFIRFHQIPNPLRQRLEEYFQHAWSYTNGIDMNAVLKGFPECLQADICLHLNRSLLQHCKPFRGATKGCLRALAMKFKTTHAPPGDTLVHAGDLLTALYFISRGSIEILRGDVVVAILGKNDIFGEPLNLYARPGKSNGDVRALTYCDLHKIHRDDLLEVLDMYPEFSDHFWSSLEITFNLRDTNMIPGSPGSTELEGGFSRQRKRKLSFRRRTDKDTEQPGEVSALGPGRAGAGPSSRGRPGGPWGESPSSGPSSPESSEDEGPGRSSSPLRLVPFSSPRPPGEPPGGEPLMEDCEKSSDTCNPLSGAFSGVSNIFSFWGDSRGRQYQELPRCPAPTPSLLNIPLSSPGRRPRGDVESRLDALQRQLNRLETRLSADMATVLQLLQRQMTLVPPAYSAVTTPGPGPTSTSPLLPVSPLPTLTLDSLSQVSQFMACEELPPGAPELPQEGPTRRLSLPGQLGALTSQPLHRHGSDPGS
Description: The test was performed with Qpatch16 (Sophion Biosciences Inc.) full automatic patch clamp system using hERG channel-stably expressing CHO-K1 cells. The hERG channel inhibitory action of each test compound was obtained on the basis of inhibitory action against a tail current induced by a test pulse at […] for 1 second applied after retention at +20 mV for 2 seconds. The test compound was dissolved in an extracellular fluid (137 mM NaCl, 4 mM KCl, 1.8 mM CaCl2, 1 mM MgCl2, 10 mM D(+)-glucose, 10 mM HEPES, pH 7.4), and the solution was […] at room temperature for 5 minutes. The inhibition ratio was obtained from the ratio of the tail current value observed after the compound was applied based on the tail current value observed before the compound was applied, which was taken as 100%. Cells were used for the test, where the cells show a peak tail current value not smaller than 100 pA, tail current run-down smaller than 30% of the initial current value, leak current smaller than 50% of the peak value of the tail current, and series resistance value lower than 20 MΩ.

SMILES	Ki (δ opioid receptor)	δ-receptor selectivity (Ki value ratio) κ/δ (κ opioid receptor)	δ-receptor selectivity (Ki value ratio) μ/δ (μ opioid receptor)	κ Receptor reaction ratio at the maximum concentration (reference value) (human opioid receptor κ)	EC50 (human opioid receptor μ)	Emax (human opioid receptor μ)	EC50 (human opioid receptor δ)	Emax (human opioid receptor δ)	μ Receptor reaction ratio at the maximum concentration (reference value) (human opioid receptor μ)	HERG channel inhibitory action (hERG channel)	EC50 (human opioid receptor κ)	Emax (human opioid receptor κ)
O=C(c1ccccc1)N1C[C@H]2CC34CCC1C2C31CCN(C[C@@H]2CCCCN2)C4Cc2ccc(O)cc21 (some centres unmarked) [Compound 47]	< 10 nM	>10	>10	–	–	–	–	–	–	–	–	–
NCC(O)CN1CC[C@@]23c4cc(O)ccc4C[C@@H]1[C@]21CC[C@@H]2[C@H]3[C@@H](CN2C(=O)c2ccccc2)C1 (single isomer, unassigned) [Compound 62a]	–	–	–	(1.7)^a %	> 0.1 µM	106%	< 0.001 µM	108%	–	–	–	–
C[C@H](N)CN1CCC23c4cc(O)ccc4CC1C21CCC2C3[C@@H](CN2C(=O)c2ccccc2)C1 (some centres unmarked) [Compound 43]	< 1 nM	>10	>10	(7.2)^a %	–	–	< 0.01 µM	109%	(8.2)^a %	–	–	–
Cc1cc(C)nc(N2C[C@H]3C[C@@]45CC[C@@H]2[C@@H]3[C@@]42CCN(CCCN)[C@@H]5Cc3ccc(O)cc32)n1 [Compound 76, (1S,3aR,5aS,6R,11bR,11cS)-14-(3-aminopropyl)-3-(4,6-dimethylpyrimidin-2-yl)-2,3,3a,4,5,6,7,11c-octahydro-1H-6,11b-(epiminoethano)-1,5a-methanonaphtho[1,2-e]indol-10-ol]	–	–	–	–	–	–	–	–	–	<50%	–	–
CN1CCC[C@H]1CN1CCC23c4cc(O)ccc4CC1C21CCC2C3[C@@H](CN2C(=O)c2ccccc2)C1 (stereo partly drawn) [Compound 20, [(1S,3aR,5aS,6R,11bR,11cS)-10-hydroxy-14-[[(2S)-11-methylpyrrolidin-2-yl]methyl]-1,2,3a,4,5,6,7,11c-octahydro-3H-6,11b-(epiminoethano)-1,5a-methanonaphtho[1,2-e]indol-3-yl](phenyl)methanone]	–	–	–	–	> 0.1 µM	54%	< 0.001 µM	103%	–	–	> 0.01 µM	17%
N[C@@H](CO)CN1CC[C@@]23c4cc(O)ccc4C[C@@H]1[C@]21CC[C@@H]2[C@H]3[C@@H](CN2C(=O)c2ccccc2)C1 [Compound 64, [(1S,3aR,5aS,6R,11bR,11cS)-14-[(2R)-2-amino-3-hydroxypropyl]-10-hydroxy-1,2,3a,4,5,6,7,11c-octahydro-3H-6,11b-(epiminoethano)-1,5a-methanonaphtho[1,2-e]indol-3-yl](phenyl)methanone]	–	–	–	(9.0)^a %	–	–	< 0.001 µM	105%	(60)^a %	<50%	–	–
Cc1cc(C)nc(N2C[C@H]3C[C@@]45CC[C@@H]2[C@@H]3[C@@]42CCN(CCN(C)C)[C@@H]5Cc3ccc(O)cc32)n1 [Compound 74, (1S,3aR,5aS,6R,11bR,11cS)-14-[2-(dimethylamino)ethyl]-3-(4,6-dimethylpyrimidin-2-yl)-2,3,3a,4,5,6,7,11c-octahydro-1H-6,11b-(epiminoethano)-1,5a-methanonaphtho[1,2-e]indol-10-ol]	–	–	–	–	> 0.01 µM	121%	< 0.001 µM	101%	–	–	> 0.1 µM	46%
NCCCN1CCC23c4cc(O)ccc4CC1C21CCC2C3[C@@H](CN2C(=O)c2cccc3ccccc23)C1 (some centres unmarked) [Compound 55]	–	–	–	(4.8)^a %	> 0.01 µM	82%	< 0.001 µM	102%	–	–	–	–
NCCN1CC[C@@]23c4cc(O)ccc4C[C@@H]1[C@]21CC[C@@H]2[C@H]3[C@@H](CN2C(=O)c2ccccc2)C1 [Compound 13, [(1S,3aR,5aS,6R,11bR,11cS)-14-(2-aminoethyl)-10-hydroxy-1,2,3a,4,5,6,7,11c-octahydro-3H-6,11b-(epiminoethano)-1,5a-methanonaphtho[1,2-e]indol-3-yl](phenyl)methanone]	< 10 nM	>10	>10	–	> 0.1 µM	39%	< 0.01 µM	101%	–	<50%	> 0.1 µM	12%
O=C(c1ccccc1)N1C[C@H]2CC34CCC1C2C31CCN(CC2CNC2)C4Cc2ccc(O)cc21 (some centres unmarked) [Compound 49]	–	–	–	–	> 0.1 µM	105%	< 0.001 µM	108%	–	–	> 0.1 µM	28%
NCCCN1CCC23c4cc(O)ccc4CC1C21CCC2C3[C@@H](CN2C(=O)c2ccccc2)C1 (some centres unmarked) [Compound 41]	–	–	–	(15)^a %	> 0.1 µM	97%	< 0.001 µM	103%	–	–	–	–
O=C(c1ccccc1)N1C[C@H]2C[C@@]34CC[C@@H]1[C@@H]2[C@@]31CCN(C[C@@H]2CCCN2)[C@@H]4Cc2ccc(O)cc21 [Compound 19, [(1S,3aR,5aS,6R,11bR,11cS)-10-hydroxy-14-[[(2S)-pyrrolidin-2-yl]methyl]-1,2,3a,4,5,6,7,11c-octahydro-3H-6,11b-(epiminoethano)-1,5a-methanonaphtho[1,2-e]indol-3-yl](phenyl)methanone]	–	–	–	(2.6)^a %	> 0.1 µM	27%	< 0.01 µM	106%	–	<50%	–	–
CN(C)CCN1CCC23c4cc(O)ccc4CC1C21CCC2C3[C@@H](CN2C(=O)c2ccccc2)C1 (some centres unmarked) [Compound 40]	–	–	–	–	> 0.01 µM	92%	< 0.001 µM	104%	–	–	> 0.01 µM	22%
